Data on two compounds can be found in patent publication US10835840B2, “Methods for in situ separation of mixtures” (INTERNATIONAL SCIENTIFIC PTY LTD, priority 2015, dated 2020).

Values joined by “and” are separate entries in the source; they are usually repeats but may differ in a detail not shown here. Equal values may be shown once.

Data set [1] in a line: Tape stripping after applying niacinamide gel mixture with or without weak magnetic field (ETP008), mass spectrometry. The data set is classed as in vivo. Set-up: unit not given here. The source says:
ETP008—a linear array of displaced dipolar magnetic elements comprising strontium oxides dispersed in a PVC film base. The displaced dipolar magnetic elements were created in parallel with a pole flux of 450 Gauss. Each element or pole was 2.7 mm wide, creating a pair of displaced dipolar magnetic elements of pitch of 1.5 pairs per centimetre. Inter-pair flux gradient was 900 Gauss or 1350 Gauss per centimetre.
An aliquot of the niacinamide mixture was applied to both regions without rubbing. A magnetic film (ETP008) was placed in close proximity (approximately 0.5 mm) above the Active region for 5 minutes.
The Tape strip samples were then analysed for niacinamide using a validated mass spectrometry method.

The conditions of data set [2]: in vivo. The method, then:
The subject's volar forearm or upper arm was delineated into two 3×3 cm square regions which were designated […]. […] After an absorption period of 30 minutes, the excess mixture was removed from each region by washing with water. The region was then tape stripped using the adapted procedure of Lademann et al (The tape stripping procedure—evaluation of some critical parameters. European Journal of Pharmaceutics and Biopharmaceutics 72 (2009) 317-323).

The mark [3] stands for this setting: Active, Total (6-10) tape strips.
[4] abbreviates: Passive, Total (6-10) tape strips.

`NC(=O)c1cccnc1` [Niacinamide]: the “Niacinamide penetration, Average” value stood at 2.907 in data set [1] (Active (weak magnetic field, ETP008), Tape Strip 1); 2.036 in data set [1] (Active, Tape Strip 2); 1.12 in data set [1] (Active, Tape Strip 3); 0.8796 in data set [1] (Active, Tape Strip 4); 0.8556 in data set [1] (Active, Tape Strip 5); 0.7575 in data set [1] (Active, Tape Strip 6). In addition, the “Niacinamide penetration, Average” value was found to be 0.6674 in data set [1] (Active, Tape Strip 7); 0.5672 in data set [1] (Active, Tape Strip 8); 0.4439 in data set [1] (Active, Tape Strip 9); 0.3798 in data set [1] (Active, Tape Strip 10); 2.816 in data set [1] (setting [3]); 2.428 in data set [1] (Passive (no weak magnetic field), Tape Strip 1). Also, the “Niacinamide penetration, Average” value in data set [1] (Passive, Tape Strip 2) worked out at 1.353; in data set [1] (Passive, Tape Strip 3), 1.193; in data set [1] (Passive, Tape Strip 4), 0.9603; in data set [1] (Passive, Tape Strip 5) it was 0.8282; in data set [1] (Passive, Tape Strip 6) it was 0.6176; in data set [1] (Passive, Tape Strip 7), 0.6112. The “Niacinamide penetration, Average” value is listed as 0.4614 in data set [1] (Passive, Tape Strip 8); 0.3664 in data set [1] (Passive, Tape Strip 9); 0.3966 in data set [1] (Passive, Tape Strip 10); 2.453 in data set [1] (setting [4]). For the same compound, the “Niacinamide penetration, individual columns 1-6” value is 4.463 and 1.099 and 1.021 and 3.47 and 2.739 and 4.647 in data set [1] (Active (weak magnetic field, ETP008, 5 minutes), Tape Strip 1, gel mixture, 30 minutes absorption); 1.782 and 0.5649 and 1.07 and 1.211 and 2.226 and 5.364 in data set [1] (Active, Tape Strip 2); 1.137 and 0.5147 and 1.116 and 1.035 and 1.694 and 1.226 in data set [1] (Active, Tape Strip 3); 0.9888 and 0.7087 and 1.098 and 0.8548 and 0.8425 and 0.7848 in data set [1] (Active, Tape Strip 4); 0.9146 and 0.7814 and 0.7495 and 0.8808 and 1.167 and 0.6402 in data set [1] (Active, Tape Strip 5); 0.895 and 0.8145 and 0.5287 and 0.8757 and 0.7531 and 0.6777 in data set [1] (Active, Tape Strip 6). Besides, the “Niacinamide penetration, individual columns 1-6” value in data set [1] (Active, Tape Strip 7) is 0.6261 and 0.5502 and 0.4859 and 0.6321 and 0.6608 and 1.049; in data set [1] (Active, Tape Strip 8) it was 0.4149 and 0.7107 and 0.4741 and 0.5541 and 0.5753 and 0.6739; in data set [1] (Active, Tape Strip 9), 0.4666 and 0.5396 and 0.4059 and 0.4627 and 0.4898 and 0.2985; in data set [1] (Active, Tape Strip 10), 0.4229 and 0.3982 and 0.3809 and 0.2336 and 0.5187 and 0.3243; in data set [1] (setting [3]) it was 2.826 and 3.013 and 2.276 and 2.758 and 2.998 and 3.024; in data set [1] (Passive (no weak magnetic field), Tape Strip 1, gel mixture, 30 minutes absorption), 4.785 and 1.997 and 0.8068 and 3.16 and 2.0563 and 1.761. In addition, the “Niacinamide penetration, individual columns 1-6” value in data set [1] (Passive, Tape Strip 2) was 1.077 and 0.9778 and 1.464 and 0.9842 and 1.846 and 1.768; in data set [1] (Passive, Tape Strip 3), 0.6071 and 0.8166 and 1.131 and 1.06 and 1.456 and 2.085; in data set [1] (Passive, Tape Strip 4), 0.4947 and 1.297 and 0.8954 and 0.5456 and 0.8406 and 1.689; in data set [1] (Passive, Tape Strip 5), 0.5925 and 0.8516 and 0.935 and 0.6655 and 0.6213 and 1.303; in data set [1] (Passive, Tape Strip 6), 0.5736 and 0.5759 and 0.7258 and 0.5432 and 0.6385 and 0.6487; in data set [1] (Passive, Tape Strip 7), 0.5936 and 0.4867 and 0.5056 and 0.622 and 0.5467 and 0.9127. The “Niacinamide penetration, individual columns 1-6” value is 0.5657 and 0.4006 and 0.4313 and 0.3634 and 0.4878 and 0.5195 in data set [1] (Passive, Tape Strip 8); 0.3146 and 0.4048 and 0.4168 and 0.4248 and 0.2422 and 0.3954 in data set [1] (Passive, Tape Strip 9); 0.3563 and 0.5215 and 0.2107 and 0.4442 and 0.3186 and 0.5283 in data set [1] (Passive, Tape Strip 10); 2.404 and 2.39 and 2.29 and 2.398 and 2.234 and 3.005 in data set [1] (setting [4]).

For Vitamin E, the “Penetration of Vitamin E into the skin, in words” value in data set [2] is recorded as “much greater penetration”.
